Data taken from patent US10744114B2, “Use of eupatilin as pharmaceutical composition for prevention and treatment of fibrosis using EMT inhibitory activity” (OSTEONEUROGEN INC., priority 2016, dated 2020).

Columns and labels:
[1] = tested on: Col1 (type 1 Collagen), Vim (Vimentin) and Twist; assay: Real-time RT-PCR of EMT regulators in ONGHEPA1 cells; format: cell-based, mouse; conditions: TGF-β + eupatilin 50 μM, 24 hr
Protocol: Also in order to evaluate whether the effect of eupatilin described above is due to the influence of eupatilin on EMT, for the cells incubated for 24 hr in each test group, the extent of expression of […], for example, Col1 (type 1 Collagen), Vim (Vimentin) and Twist, was measured through real-time RT-PCR.

[2] = tested on: bleomycin-induced pulmonary fibrosis; assay: Fibrosis of lung tissue induced by bleomycin (Masson's trichrome); format: in vivo, C57BL/6J mice; conditions: 12 days after bleomycin 40 μg/head
Excerpt: Five-week-old male C57BL/6J mice (weight: 18.2 to 20.5 g) (KOATECH, Korea) were used as experimental animals, and each test group was composed of five experimental animals, as is summarized in Table 1 below.
Pulmonary fibrosis was induced by directly injecting a bleomycin solution into the lungs via the trachea according to the intratracheal instillation (IT) method of Kremer, Laxer and Berkman et al. Specifically, C57BL/6J mice were anesthetized through inhalation with 70% N2O and 30% O2 gas and 1.5% isoflurane, and the skin of the anterior neck thereof was excised and the organs under the muscle thereof were exposed and then carefully excised using ophthalmic surgical scissors. 50 μL of a bleomycin solution in distilled water was directly injected into the lungs all at once via the excised organ using a 1 mL syringe fitted with a 19-gauge injection needle having a blunt tip. […]
Eupatilin was used by being dissolved in a DPBS buffer (containing 1% DMSO), and the amount of eupatilin that was administered was 1 mL/kg, and the dose for each individual was calculated based on the recent body weight thereof 12 days after the administration of bleomycin, eupatilin was forcibly nasally administered once a day (5 times a week) for 1 week using a micropipette. […]

ONGHEPA1 cells = assay: Global gene expression analysis (RNA-Seq) and target gene analysis; format: cell-based, mouse; conditions: 24 hr
Protocol: For a mechanism for the therapeutic effect on fibrosis, the global gene expression of DMSO-treated ONGHEPA1 cells (a control group), ONGHEPA1 cells in which fibrosis was induced by TGF-β, and ONGHEPA1 cells treated with TGF-β and eupatilin was measured.
The cells were treated with DMSO, TGF-β or eupatilin for 24 hr, and total RNA was isolated to manufacture a library, after which about 10,000 expressed mRNA species in a total transcriptome of 30 Gb were analyzed using an Illumina High-seq sequencer.

COc1ccc(-c2cc(=O)c3c(O)c(OC)c(O)cc3o2)cc1OC [eupatilin, 2-(3,4-dimethoxyphenyl)-5,7-dihydroxy-6-methoxy-chromone]
expression of Col1 (type 1 Collagen) [1]: inhibited
expression of Twist [1]: inhibited
expression of Vim (Vimentin) [1]: inhibited
inhibition of pulmonary fibrosis ([2]; 20 μg eupatilin nasally once a day for 1 week): inhibited
inhibition of pulmonary fibrosis ([2]; 40 μg eupatilin nasally once a day for 1 week): more effectively inhibited
expression of Fstl1 (ONGHEPA1 cells; TGF-β + eupatilin): inhibited to a level of almost zero
Log2fc A disintegrin-like and metallopeptidase (reprolysin type) with thrombospondin type 1 motif 2 (Adamts2) (ONGHEPA1 cells; TGF-β vs TGF-β+eupatilin): 2.08
Log2fc A disintegrin-like and metallopeptidase with thrombospondin type 1 motif 12 (Adamts12) (ONGHEPA1 cells; TGF-β vs TGF-β+eupatilin): 2.09
Log2fc AXL receptor tyrosine kinase (Axl) (ONGHEPA1 cells; TGF-β vs TGF-β+eupatilin): −infinite
Log2fc Actin alpha 4 (Actn4) (ONGHEPA1 cells; TGF-β vs TGF-β+eupatilin): infinite
Log2fc Actin, gamma2 (Actg2) (ONGHEPA1 cells; TGF-β vs TGF-β+eupatilin): −5.83
Log2fc ArfGAP with SH3 domain, ankyrin repeat and PH domain 1 (Asap1) (ONGHEPA1 cells; TGF-β vs TGF-β+eupatilin): −infinite
Log2fc Aurora kinase A (Aurka) (ONGHEPA1 cells; TGF-β vs TGF-β+eupatilin): −15.3
Log2fc BTAF1 RNA polymerase II, B-TFIID transcription factor-associated (Btaf1) (ONGHEPA1 cells; TGF-β vs TGF-β+eupatilin): −infinite
Log2fc C-terminal-binding protein 2 (Ctbp2) (ONGHEPA1 cells; TGF-β vs TGF-β+eupatilin): infinite
Log2fc Caldesmon 1 (Cald1) (ONGHEPA1 cells; TGF-β vs TGF-β+eupatilin): infinite
Log2fc Calreticulin (Calr) (ONGHEPA1 cells; TGF-β vs TGF-β+eupatilin): −1.74
Log2fc Calumenin (Calu) (ONGHEPA1 cells; TGF-β vs TGF-β+eupatilin): infinite
Log2fc Caveolin 1, Caveolae protein (Cav1) (ONGHEPA1 cells; TGF-β vs TGF-β+eupatilin): 1.76
Log2fc Cell cycle associated protein 1 (Caprin1) (ONGHEPA1 cells; TGF-β vs TGF-β+eupatilin): −infinite
Log2fc Cell migration inducing protein, hyaluronan binding (Cemip) (ONGHEPA1 cells; TGF-β vs TGF-β+eupatilin): −2.75
Log2fc Coatomer protein complex, subunit gamma 1 (Copg1) (ONGHEPA1 cells; TGF-β vs TGF-β+eupatilin): infinite
Log2fc Collagen type 1 alpha 1 (Col1a1) (ONGHEPA1 cells; TGF-β vs TGF-β+eupatilin): −1.64
Log2fc Collagen type VII alpha1 (Col7a1) (ONGHEPA1 cells; TGF-β vs TGF-β+eupatilin): −15.2
Log2fc Collagen type XV, alpha 1 (Col5a1) (ONGHEPA1 cells; TGF-β vs TGF-β+eupatilin): 2.26
Log2fc Collagen, type III, alpha 1 (Col3a1) (ONGHEPA1 cells; TGF-β vs TGF-β+eupatilin): infinite
Log2fc Collagen, type XI, alpha 1 (Col11a1) (ONGHEPA1 cells; TGF-β vs TGF-β+eupatilin): −3.11
Log2fc Collagen, type XII, alpha 1 (Col12a1) (ONGHEPA1 cells; TGF-β vs TGF-β+eupatilin): 2.02
Log2fc Colony stimulating factor 1 (macrophage) (Csf1) (ONGHEPA1 cells; TGF-β vs TGF-β+eupatilin): 2.15
Log2fc Crystallin, zeta (quinone reductase)-like 1 (Cryzl1) (ONGHEPA1 cells; TGF-β vs TGF-β+eupatilin): infinite
Log2fc Cyclin D2 (Ccnd2) (ONGHEPA1 cells; TGF-β vs TGF-β+eupatilin): 2.29
Log2fc Dihydropyrimidinase-like 3 (Dpysl3) (ONGHEPA1 cells; TGF-β vs TGF-β+eupatilin): infinite
Log2fc Doublecortin-like kinase 1 (Dclk1) (ONGHEPA1 cells; TGF-β vs TGF-β+eupatilin): 1.54
Log2fc Dynein cytoplasmic 1 heavy chain 1 (Dync1h1) (ONGHEPA1 cells; TGF-β vs TGF-β+eupatilin): −infinite
Log2fc Dysferlin (Dysf) (ONGHEPA1 cells; TGF-β vs TGF-β+eupatilin): 2.06
Log2fc EH-domain containing 2 (Ehd2) (ONGHEPA1 cells; TGF-β vs TGF-β+eupatilin): infinite
Log2fc Elastin (Eln) (ONGHEPA1 cells; TGF-β vs TGF-β+eupatilin): 3.28
Log2fc Endoglin (Eng) (ONGHEPA1 cells; TGF-β vs TGF-β+eupatilin): −infinite
Log2fc Endoplasmic reticulum-golgi intermediate compartment 1 (ERGIC1) (ONGHEPA1 cells; TGF-β vs TGF-β+eupatilin): −1.26
Log2fc Ephrin B2 (Efnb2) (ONGHEPA1 cells; TGF-β vs TGF-β+eupatilin): 1.92
Log2fc Epidermal growth factor-containing fibulin-like extracellular matrix protein 2 (Efemp2) (ONGHEPA1 cells; TGF-β vs TGF-β+eupatilin): 1.66
Log2fc Exocyst complex component 4 (Exoc4) (ONGHEPA1 cells; TGF-β vs TGF-β+eupatilin): 2.9
Log2fc Family with sequence similarity 175, member B (Fam175b) (ONGHEPA1 cells; TGF-β vs TGF-β+eupatilin): −infinite
Log2fc Fibronectin 1 (Fn1) (ONGHEPA1 cells; TGF-β vs TGF-β+eupatilin): infinite
Log2fc Fibronectin type III domain containing 1 (Fndc1) (ONGHEPA1 cells; TGF-β vs TGF-β+eupatilin): 1.75
Log2fc Follistatin-like 1 (Fstl1) (ONGHEPA1 cells; TGF-β vs TGF-β+eupatilin): infinite
Log2fc Fras 1 related extracellular matrix protein 1 (Frem1) (ONGHEPA1 cells; TGF-β vs TGF-β+eupatilin): 2.36
Log2fc Heat shock protein 90, alpha (cytosolic), class A member 1(Hsp90aa1) (ONGHEPA1 cells; TGF-β vs TGF-β+eupatilin): infinite
Log2fc Heparan sulfate 6-O-sulfotransferase 2 (Hs6st2) (ONGHEPA1 cells; TGF-β vs TGF-β+eupatilin): 3.26
Log2fc Importin-4 (Ipo4) (ONGHEPA1 cells; TGF-β vs TGF-β+eupatilin): −infinite
Log2fc Inhibition beta-A (Inhba) (ONGHEPA1 cells; TGF-β vs TGF-β+eupatilin): 2.19
Log2fc Inositol hexakisphosphate kinase 1 (Ip6k1) (ONGHEPA1 cells; TGF-β vs TGF-β+eupatilin): −infinite
Log2fc Integral beta 5 (Itgb5) (ONGHEPA1 cells; TGF-β vs TGF-β+eupatilin): −infinite
Log2fc Interleukin 18 receptor accessory protein (Il18rap) (ONGHEPA1 cells; TGF-β vs TGF-β+eupatilin): 1.69
